According to patent US7138361B2, “Herbicidal heterocycles” (E. I. du Pont de Nemours and Company, priority 2000, dated 2006):

Assays:
Assay type in all cases: in vivo
Nightshade [1] = assay: Test C preemergence; conditions: Rate 250 g/ha, visual evaluation after 12 to 14 days
rice (Oryza saliva) = assay: Test C flooded paddy test; conditions: for Rice plant response rating: Flooded Paddy, scale 0 to 100, 0 no effect, 100 complete control; for Plant response rating, Rice: flooded paddy test, scale 0 to 100 (0 no effect, 100 complete control)
Summary of the method: (§1)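 Each species was cultivated to 2 leaves in flooded paddy pots, then treated. After a greenhouse period of 12–14 days, the plants were scored visually relative to controls from 0 (no effect) to 100 (complete control).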

[2] = system: duck salad (Heteranthera limosa); assay: Test C flooded paddy test; conditions: for Ducksalad plant response rating: Flooded Paddy, scale 0 to 100, 0 no effect, 100 complete control; for Plant response rating, Ducksalad: flooded paddy test, scale 0 to 100 (0 no effect, 100 complete control)
Summary of the method: as §1

[3] = system: smallflower flatsedge (Cyperus difformis); assay: Test C flooded paddy test; conditions: for Flatsedge plant response rating: Flooded Paddy, scale 0 to 100, 0 no effect, 100 complete control; for Plant response rating, Flatsedge: flooded paddy test, scale 0 to 100 (0 no effect, 100 complete control)
Summary of the method: as §1

[4] = system: barnyardgrass (Echinochloa crus-galli); assay: Test C flooded paddy test; conditions: for Barnyardgrass plant response rating: Flooded Paddy, scale 0 to 100, 0 no effect, 100 complete control; for Plant response rating, Barnyardgrass: flooded paddy test, scale 0 to 100 (0 no effect, 100 complete control)
Summary of the method: as §1

Sunflower = assay: Test C preemergence; conditions: Rate 125 g/ha, scale 0 to 100, 0 no effect, 100 complete control
[5] = system: johnsongrass (Sorghum halepense); assay: Test C preemergence
Summary of the method: (§2)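 Pre- and postemergence treatments used a non-phytotoxic solvent/surfactant formulation; post-treated plants measured 2 to 18 cm. Greenhouse hold 12–14 d; % control estimated visually relative to controls.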

Nightshade [6] = assay: Test C preemergence
[7] = system: lambsquarters (Chenopodium album); assay: Test C preemergence
Summary of the method: as §2

kochia (Kochia scoparia) = assay: Test C preemergence
Summary of the method: as §2

[8] = system: yellow nutsedge (Cyperus esculentus); assay: Test C preemergence
Summary of the method: as §2

corn (Zea mays) [9] = assay: Test C preemergence
Summary of the method: as §2

[10] = system: woolly cupgrass (Eriochloa villosa); assay: Test C preemergence
Summary of the method: as §2

soybean (Glycine max) = assay: Test C preemergence
Summary of the method: as §2

[11] = system: pigweed (Amaranthus retroflexus); assay: Test C preemergence
Summary of the method: as §2

corn (Zea mays) [12] = assay: Test B postemergence; conditions: 13 to 15 days
Summary of the method: (§3)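 Seeds were planted and sprayed preemergence with test chemical in a non-phytotoxic solvent mixture containing surfactant; postemergence plants (2 to 18 cm, 1- to 4-leaf stage) received the same formulation. Greenhouse hold 13 to 15 days, then visual rating versus untreated controls on a 0–100 scale (0 no effect, 100 complete control).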

wild oat (Avena fatua) = assay: Test B postemergence; conditions: 13 to 15 days
Summary of the method: as §3

[13] = system: wheat (Triticum aestivum); assay: Test B postemergence; conditions: 13 to 15 days
Summary of the method: as §3

[14] = system: barnyardgrass (Echinochloa crus-galli); assay: Test B postemergence; conditions: 13 to 15 days
Summary of the method: as §3

[15] = Preemergence, Rate 500 g/ha, scale 0 to 100
[16] = Rate 62 g/ha, scale 0 to 100, 0 no effect, 100 complete control
[17] = preemergence, Rate 250 g/ha, visual evaluation after 12 to 14 days
[18] = preemergence, Rate 125 g/ha, scale 0 to 100, 0 no effect, 100 complete control
[19] = Rate 125 g/ha, scale 0 (no effect) to 100 (complete control)
[20] = Rate 500 g/ha, scale 0 to 100, 0 is no effect, 100 is complete control

Question: `CC(C)c1ccn(C2SCN(c3cccc(OC(F)F)c3)C2=O)n1` (stereo not shown) [Compound 44] was tested. Which “Plant response rating (0 to 100), Nightshade” value (Nightshade [1]) did it give?
Answer: 0

Question: And the “Rice plant response rating” value (rice (Oryza saliva); Rate 250 g/ha)?
Answer: 90

Question: What about the “Rice plant response rating” value (rice (Oryza saliva); Rate 500 g/ha) of the same molecule?
Answer: 90

Question: What about the “Plant response rating, Rice” value (rice (Oryza saliva); Rate 62 g/ha) of the same molecule?
Answer: 80

Question: And the “Plant response rating, Rice” value (rice (Oryza saliva); Rate 125 g/ha)?
Answer: 80

Question: What about the “Ducksalad plant response rating” value ([2]; Rate 250 g/ha) of the same molecule?
Answer: 100

Question: What about the “Ducksalad plant response rating” value ([2]; Rate 500 g/ha) of the same molecule?
Answer: 100

Question: And the “Plant response rating, Ducksalad” value ([2]; Rate 62 g/ha)?
Answer: 50

Question: And the “Plant response rating, Ducksalad” value ([2]; Rate 125 g/ha)?
Answer: 90

Question: What about the “Flatsedge plant response rating” value ([3]; Rate 250 g/ha) of the same molecule?
Answer: 100

Question: And the “Flatsedge plant response rating” value ([3]; Rate 500 g/ha)?
Answer: 100

Question: What about the “Plant response rating, Flatsedge” value ([3]; Rate 62 g/ha) of the same molecule?
Answer: 90

Question: What about the “Plant response rating, Flatsedge” value ([3]; Rate 125 g/ha) of the same molecule?
Answer: 100

Question: And the “Barnyardgrass plant response rating” value ([4]; Rate 250 g/ha)?
Answer: 100

Question: And the “Barnyardgrass plant response rating” value ([4]; Rate 500 g/ha)?
Answer: 100

Question: And the “Plant response rating, Barnyardgrass” value ([4]; Rate 62 g/ha)?
Answer: 90

Question: And the “Plant response rating, Barnyardgrass” value ([4]; Rate 125 g/ha)?
Answer: 100

Question: What about the “Plant response rating, Sunflower” value (Sunflower) of the same molecule?
Answer: 0

Question: What about the “Plant response rating, Johnsongrass” value [5, 15] of the same molecule?
Answer: 100

Question: And the “Plant response rating, Johnsongrass” value [5, 16]?
Answer: 0

Question: And the “Plant response rating (0 to 100), Johnsongrass” value [5, 17]?
Answer: 90

Question: What about the “Plant response rating, Johnsongrass” value [5, 18] of the same molecule?
Answer: 60

Question: And the “Plant response rating, Nightshade” value (Nightshade [6]; [16])?
Answer: 0

Question: What about the “Plant response rating, Nightshade” value (Nightshade [6]; Rate 125 g/ha, scale 0 to 100, 0 no effect, 100 complete control) of the same molecule?
Answer: 0

Question: What about the “Plant response rating, Nightshade” value (Nightshade [6]; Rate 500 g/ha, scale 0 to 100) of the same molecule?
Answer: 30

Question: And the “Plant response rating, Lambsquarters” value [7, 15]?
Answer: 100

Question: And the “Plant response rating, Lambsquarters” value [7, 16]?
Answer: 100

Question: And the “Plant response rating (0 to 100), Lambsquarters” value [7, 17]?
Answer: 100

Question: What about the “Plant response rating, Lambsquarters” value [7, 18] of the same molecule?
Answer: 100

Question: What about the “Plant response rating, Kochia” value (kochia (Kochia scoparia); [15]) of the same molecule?
Answer: 100

Question: What about the “Plant response rating, Kochia” value (kochia (Kochia scoparia); [16]) of the same molecule?
Answer: 70

Question: And the “Plant response rating (0 to 100), Kochia” value (kochia (Kochia scoparia); [17])?
Answer: 100

Question: And the “Plant response rating, Kochia” value (kochia (Kochia scoparia); [18])?
Answer: 100

Question: What about the “Plant response rating, Nutsedge” value [8, 15] of the same molecule?
Answer: 100

Question: And the “Plant response rating, Nutsedge” value [8, 16]?
Answer: 0

Question: And the “Plant response rating (0 to 100), Nutsedge” value [8, 17]?
Answer: 60

Question: What about the “Plant response rating, Nutsedge” value [8, 18] of the same molecule?
Answer: 30

Question: What about the “Plant response rating, Corn” value (corn (Zea mays) [9]; [15]) of the same molecule?
Answer: 70

Question: And the “Plant response rating, Corn” value (corn (Zea mays) [9]; [16])?
Answer: 0

Question: And the “Plant response rating (0 to 100), Corn” value (corn (Zea mays) [9]; [17])?
Answer: 0

Question: And the “Plant response rating, Corn” value (corn (Zea mays) [9]; [18])?
Answer: 0

Question: And the “Plant response rating, Cupgrass, Woolly” value [10, 15]?
Answer: 100

Question: And the “Plant response rating, Cupgrass, Woolly” value [10, 16]?
Answer: 30

Question: What about the “Plant response rating (0 to 100), Cupgrass, Woolly” value [10, 17] of the same molecule?
Answer: 100

Question: What about the “Plant response rating, Cupgrass, Woolly” value [10, 18] of the same molecule?
Answer: 90

Question: And the “Plant response rating, Soybean” value (soybean (Glycine max); [15])?
Answer: 30

Question: And the “Plant response rating, Soybean” value (soybean (Glycine max); [16])?
Answer: 0

Question: What about the “Plant response rating (0 to 100), Soybean” value (soybean (Glycine max); [17]) of the same molecule?
Answer: 30

Question: What about the “Plant response rating, Soybean” value (soybean (Glycine max); [18]) of the same molecule?
Answer: 0

Question: What about the “Plant response rating, Pigweed” value [11, 15] of the same molecule?
Answer: 100

Question: And the “Plant response rating, Pigweed” value [11, 16]?
Answer: 0

Question: What about the “Plant response rating (0 to 100), Pigweed” value [11, 17] of the same molecule?
Answer: 20

Question: And the “Plant response rating, Pigweed” value [11, 18]?
Answer: 0

Question: And the “Plant response rating, Corn” value (corn (Zea mays) [12]; [19])?
Answer: 0

Question: What about the “Plant response rating, Corn” value (corn (Zea mays) [12]; [20]) of the same molecule?
Answer: 20

Question: What about the “Plant response rating, Wild Oat” value (wild oat (Avena fatua); [19]) of the same molecule?
Answer: 0

Question: What about the “Plant response rating, Wild Oat” value (wild oat (Avena fatua); [20]) of the same molecule?
Answer: 0

Question: And the “Plant response rating, Wheat” value [13, 19]?
Answer: 0

Question: What about the “Plant response rating, Wheat” value [13, 20] of the same molecule?
Answer: 0

Question: And the “Plant response rating, Barnyardgrass” value [14, 19]?
Answer: 40

Question: What about the “Plant response rating, Barnyardgrass” value [14, 20] of the same molecule?
Answer: 100
